Measured values: patent publication US20140037620A1, “Methods of Treating Breast Cancer with Gemcitabine Therapy” (British Columbia Cancer Agency Branch, priority 2012, published 2014)
Read-outs that look alike come from different tables or passages of the source.

Assays:
[1] = system: women with locally advanced or metastatic breast cancer; conditions: for effect on OS / relative reduction for TTP: GD v D; for relative reduction in mortality from the addition of gemcitabine to docetaxel compared to docetaxel alone: patients with basal-like subtype (PAM50)
Procedure: Patients were randomly assigned to docetaxel (100 mg/m^2) day 1, every 21 days or gemcitabine (1000 mg/m^2) days 1 and 8 plus docetaxel (75 mg/m^2) day 8. Patients were either previously untreated, had prior anthracycline-based (neo)adjuvant chemotherapy or had received a single prior anthracycline-based chemotherapy regimen for metastatic breast cancer. The Danish Breast Cancer Cooperative Group (DBCG) prepared the original protocol as well as the biomarker supplement, and the Danish National Committee on Biomedical Research Ethics has approved the original protocol as well as the add-on (KF 02-045-01 and H-KF-02-045-01) before their activation. Time to progression (TTP) was the primary endpoint for the original trial as well as this biomarker sub-study (Nielsen et al., JCO 2011; 29:4748-4754). Overall survival (OS) and response rate (RR) were secondary endpoints. TTP was measured from random assignment to date of documented progression with censoring at date of last visit or of death. OS was calculated from date of random assignment to date of death with censoring for surviving patients at last visit date. Time-to-event endpoints (TTP and OS) were estimated by the Kaplan-Meier method, and PAM50 subtypes were compared using the log-rank test. Analyses of PAM50 subtypes were done unadjusted and adjusted for preselected covariates in multivariate Cox proportional hazards models. […] The adjusted model was further stratified for previous chemotherapy (Nielsen et al., JCO 2011; 29:4748-4754). The assumption of proportional hazards was assessed by Schoenfeld residuals. Analyses were done to assess whether treatment effects on TTP and OS varied according to PAM50 subtypes or the levels of preselected variables. The multivariate Cox proportional hazards model was extended by one interaction term at a time. The interaction terms were tested using the Wald test and results were given in a Forest plot. RR was evaluated for patients with measurable disease. […] RRs were compared by using Fisher's exact test.

[2] = system: women with locally advanced or metastatic breast cancer; conditions: original trial, 337 women, GD v D; cited from earlier work

gemcitabine plus docetaxel [GD]
gain in median overall survival, doublet arm compared to monotherapy arm ([1]; basal-like patients, Kaplan-Meier estimates): 10 months | effect on TTP across PAM50 intrinsic subtypes ([1]; multivariate Cox regression, interaction test): TTP seemed equally improved in PAM50 intrinsic subtypes | effect on OS ([1]; patients with HER2-enriched subtype): significantly worsened OS | risk of TTP events and mortality in the doublet arm compared to single agent docetaxel ([1]; patients with HER2 amplified tumors): higher risk of TTP events | effect on OS ([1]; patients with basal-like breast cancer): significantly improved OS | effect on OS ([1]; patients with basal-like breast cancer, listed as gemcitabine and docetaxel): more substantial reduction in mortality | relative reduction in mortality from the addition of gemcitabine to docetaxel compared to docetaxel alone [1]: 71% | relative reduction in mortality from the addition of gemcitabine to docetaxel compared to docetaxel alone ([1]; listed as gemcitabine plus docetaxel): 73% | relative reduction for TTP ([1]; patients with basal-like subtype): 63% | benefit from adding gemcitabine to docetaxel ([1]; patients with highly proliferative subtypes (non-luminal A)): No support was found for a more general benefit | survival benefit compared with docetaxel monotherapy ([1]; patients with non-basal-like subtypes): no significant incremental survival benefit | relative reduction for TTP ([1]; patients with other (non-basal-like) subtypes): 37% | HR for OS, treatment effect in the original study [2]: 0.94 | HR for TTP, treatment effect in the original study [2]: 0.68
